The results in this text go back to a melting point compilation (Tetko et al.; mined from patent text by program, amines drawn as free bases though some values may be those of a salt).

With `CC1CC(=O)c2cc(Cl)c(F)cc2O1` (configuration not stated), the melting point (in general, the temperature, or range, at which the solid turns liquid) lay within 88 to 90 °C.

On to `COc1ccc(OCc2nc(N)c3nccnc3n2)cc1`, for which the melting point lay within 238 to 240 °C. As for `COc1ccc(C(=O)N2c3ccccc3C(N3CCSc4ccccc43)CC2C)cc1OC` (configuration not stated), the melting point fell in the range of 113 to 114 °C. `Cn1cc(-c2cc3cccnc3[nH]2)c2cc(OC3(C(=O)O)CCC3)ccc21`: the melting point fell in the range of 168 to 169 °C.

`OC1CSC(Oc2cccc(-c3cccnc3)n2)C(O)C1O` (configuration not stated) gave a melting point of 179 °C. The same measure for `O=C(NC1CCN(CCC2CCOc3ccccc32)CC1)c1cccnc1` (configuration not stated): 126 to 128 °C. The same measure for `CCN(CC)C(=O)c1cc(-c2cccc([N+](=O)[O-])c2)c2sccc2c1`: 106 °C; for `Cc1nc(N)c2nc(C)n(CCCNC(=O)C(C)C)c2c1C`: 178 to 179 °C; for `CCN1CCN(CC)c2cc(Nc3nc(Cl)ncc3Cl)ccc2C1`: 69 to 73 °C. The same measure for `CCCC(C)(O)C(=O)Nc1ccnc(Br)c1` (configuration not stated): 102 °C; for `Cc1ccc2nc(N3CCNCC3)c(=O)n(-c3ccccc3)c2c1`: 166 to 168 °C; for `Cc1ccc(C(O[Si](C)(C)C(C)(C)C)C(=O)NCCO)cc1` (configuration not stated): 69 to 70 °C. The molecule `Cc1cccc(OCC(F)(F)F)c1N(Cc1cc[nH]n1)C(=O)CCl` showed a melting point of 104 to 105 °C. `COc1cc2c(c(OC)c1)C1CCC3(C)C(O)CCC3C1CC2` (configuration not stated) returned a melting point of 53 to 55 °C. The same measure for `Cc1c(C(=O)O)ccc2c3ccccc3n(Cc3ccccc3)c12`: 215 to 216 °C; for `N#CCc1cn2cccc(OCc3ccccc3)c2n1`: 148 to 150 °C; for `O=C1c2ccccc2COc2ccc(CC(=O)N(O)C3CCCCC3)cc21`: 130 to 131 °C. In turn, `Cc1ccc2c(c1)CCOC2CCN1CCN(c2ccc(S(N)(=O)=O)cc2)CC1` (configuration not stated) gave a melting point of 221 to 222 °C. `Oc1ccnc2ccc3nc[nH]c3c12`: the melting point lay in the range of 366 to 368 °C. In the case of `CCNC(=O)N(C)C1c2ccccc2Oc2ccccc21`, the melting point was 139 to 141 °C.

For the molecule `CC1(C(=O)Cn2cncn2)CC1`, the melting point was found to be 58 °C.

As for `Oc1ccc(O)c2cc3ccccc3cc12`, the melting point is 167 to 169 °C.

`Clc1cccc(-c2nnc3c4ccc(Cl)cc4c(-c4ccccc4)nn23)c1` showed a melting point of 227 to 230 °C.

The molecule `OCc1cccc2cc(-c3ccccc3)sc12` gave a melting point of 125 to 126 °C. Molecule `Cc1sc(-c2ccccc2)nc1COc1ccc(COc2ncccc2CO)cc1` returned a melting point of 111 to 112 °C. Consider `COCCC1CCCCc2c1oc(=O)c(C(c1ccccc1)C1CC1)c2O` (configuration not stated), for which the melting point lay within 58 to 60 °C. `NC(=O)N1CC(Oc2ccc(C(F)(F)F)cc2Cl)C1` returned a melting point of 156 to 159 °C. For the molecule `CCN(CC)CCN=C1CC(c2ccc(Cl)c(Cl)c2)Cc2c1c(=O)c1cc(Cl)ccc1n2O` (configuration not stated), the melting point was 212 to 213 °C. Molecule `Cc1noc(NS(=O)(=O)c2ccccc2-c2ccc(Cn3c(=O)oc4ccccc43)cc2)c1C` returned a melting point of 182 to 183 °C. In turn, `COC(=O)c1ccc(N)c(C=C(Br)Br)c1` yielded a melting point of 112 to 113 °C. As for `CNc1nn(C(=O)NC(C)(C)C)c(=O)n1N`, the melting point stood at 174 °C. In the case of `CC(C)N(C(C)C)S(=O)(=O)N[C@@H](Cc1ccc(Nc2nccc3cnccc23)cc1)C(=O)O`, the melting point turned out to be 168 °C. In turn, `COc1c(NC2CCC3(CC2)OCC(C)(C)CO3)ccnc1C` had a melting point of 45 °C. Turning to `CCOC(=O)Cc1c[nH]c2nc(Nc3ccccc3)nn2c1=O`, the melting point is 255 to 257 °C.

`CN1CCN(C(=O)OC2C3=C(SCCS3)C(=O)N2c2ccc3c(Cl)ccnc3n2)CC1` (configuration not stated) registered a melting point of 240 °C. `Cc1ccc(-c2nn(-c3ccc(Br)cc3)c(N)c2C(N)=O)cc1` registered a melting point of 222 to 223 °C.

Turning to `COc1cc2c3cc(OC)c(OC)cc3n(S(=O)(=O)c3ccccc3)c2cc1OC`, the melting point was 212 to 213 °C. In turn, `O=C1OCc2c1oc1cccc(F)c1c2=O` showed a melting point of 224 to 226 °C. As for `CN1CCCC(CC(C#N)(Cn2cncn2)c2ccc(Cl)cc2Cl)C1` (configuration not stated), the melting point lay within 125 to 126 °C. Molecule `Cn1ncc2[nH]c3cccc(-c4ccc(O)cc4)c3c(=O)c21` had a melting point above 300 °C. `O=CC1CC1(c1ccccc1)c1ccccc1` (configuration not stated): the melting point was 71 to 73 °C. With `CCC(C=O)c1ccc(S(=O)(=O)NC)cc1` (configuration not stated), the melting point is 202 to 204 °C.

In turn, `N#CCc1ccc(Cl)nc1` had a melting point of 80 °C. Molecule `CC1(C)SC(c2ccc([N+](=O)[O-])o2)NC1C(=O)O` (configuration not stated) displayed a melting point of 147 to 148 °C. As for `CC(C)C(/C=C/C(=O)O)=C(c1ccc(F)cc1)c1ccc(F)cc1`, the figure is 225 to 230 °C. In turn, `COC(=O)C1=C(C)Nc2nccn2C1c1cccc(C2(C)OCCO2)c1` (configuration not stated) registered a melting point of 199 to 201 °C. The same measure for `COC1=NS(=O)(=O)N=C1OC`: 200 to 202 °C; for `FC(F)(F)c1ccc(CC[C@H]2CNCCN2)cc1`: 135 to 141 °C; for `Cc1ccc(NCC2CCN(C(C)C3CC3)CC2)c(C(=O)Nc2ccc(Cl)cn2)c1` (configuration not stated): 79 to 81 °C. Regarding `CC1CN(C(=O)C(Cl)Cl)C(C)CN1C(=O)C(Cl)Cl` (configuration not stated), the melting point was determined as 215 °C.

The molecule `CCC1=Nc2ccc(S(C)(=O)=O)cc2C(=O)C1` yielded a melting point of 283 °C. With `OCCC(=C(c1ccccc1)c1ccccc1)c1ccccc1`, the melting point is 117 to 119 °C. Turning to `CC(C)(C)C(Cl)=NNc1ccc(Cl)cc1`, the melting point lay within 42 to 43 °C.

As for `Cc1cn(N=Cc2cccnc2)c(=O)n1C`, the melting point lay in the range of 186 to 187 °C. In turn, `Clc1ccc(N2CC=C(COc3ccc(C4=NCCO4)cc3)CC2)nn1` had a melting point of 176 °C.

The molecule `C=C1C(C(=O)c2ccccc2)CC(O[Si](c2ccccc2)(c2ccccc2)C(C)(C)C)C1COC(c1ccccc1)(c1ccccc1)c1ccccc1` (configuration not stated) had a melting point of 142 to 144 °C.

The molecule `COC(=O)CCCc1ccc(CN2CCN(c3ccncc3)CC2)cc1` returned a melting point of 126 to 127 °C. In turn, `CC(C)(C)OC(=O)N1CCC(CC(=O)Nc2cccc(-c3ccnc4c(C(=O)c5cccs5)cnn34)c2)CC1` showed a melting point of 173 to 175 °C. The same measure for `CC(C)CCC1(c2ccccc2)CC(O)=C(Sc2ccccc2)C(=O)O1` (configuration not stated): 154 to 155 °C. Turning to `COc1cccc(-c2cc(Cl)cc3c2OC(CN)C3)c1OC` (configuration not stated), the melting point was in the range of 120 to 122 °C. For the molecule `CCC1Cc2c(C)ccc(NNC(=O)OC)c2O1` (configuration not stated), the melting point lay within 98 to 100 °C.

On to `NC(=O)c1cccc(-c2ccnc(C(=O)N(O)Cc3ccccc3)c2)c1`, for which the melting point was 158 to 162 °C.

In turn, `COc1ccc(CCNC(=O)C(F)(F)F)cc1` yielded a melting point of 74 to 77 °C. `Cc1cc(N)cc(C)c1-c1ccc(-c2c(C)cc(N)cc2C)o1` yielded a melting point of 144 to 146 °C. Regarding `CCC(C)N(C)C(=O)c1cc(-c2ccccc2)cc2ccccc12` (configuration not stated), the melting point came to 125 °C. Take `CC(=O)Oc1ccc(C(=O)N2CCNC2=O)cc1OC(C)=O`: the melting point was 154 to 156 °C. As for `c1ccc(Cn2c(NC3=NCCN3)nc3ccccc32)cc1`, the figure is 165 to 166 °C.
